Experimental data: ChEMBL document CHEMBL1143360, “Synthesis and biological evaluation of curcuminoid pyrazoles as new therapeutic agents in inflammatory bowel disease: effect on matrix metalloproteinases” (Bioorg Med Chem, 2009)
The source made the active and inactive calls. The rule behind the calls is not given here.

Experiments:
[1] = biological target: T1, Matrix metalloproteinase-9 (Homo sapiens, UniProt P14780); test: Reduction of MMP9 activity in TNF-alpha/IL1-beta-stimulated human Caco-2 cells treated 1 hr before stimulation by zymography; type: cell-based
T1 sequence (P14780 whole entry): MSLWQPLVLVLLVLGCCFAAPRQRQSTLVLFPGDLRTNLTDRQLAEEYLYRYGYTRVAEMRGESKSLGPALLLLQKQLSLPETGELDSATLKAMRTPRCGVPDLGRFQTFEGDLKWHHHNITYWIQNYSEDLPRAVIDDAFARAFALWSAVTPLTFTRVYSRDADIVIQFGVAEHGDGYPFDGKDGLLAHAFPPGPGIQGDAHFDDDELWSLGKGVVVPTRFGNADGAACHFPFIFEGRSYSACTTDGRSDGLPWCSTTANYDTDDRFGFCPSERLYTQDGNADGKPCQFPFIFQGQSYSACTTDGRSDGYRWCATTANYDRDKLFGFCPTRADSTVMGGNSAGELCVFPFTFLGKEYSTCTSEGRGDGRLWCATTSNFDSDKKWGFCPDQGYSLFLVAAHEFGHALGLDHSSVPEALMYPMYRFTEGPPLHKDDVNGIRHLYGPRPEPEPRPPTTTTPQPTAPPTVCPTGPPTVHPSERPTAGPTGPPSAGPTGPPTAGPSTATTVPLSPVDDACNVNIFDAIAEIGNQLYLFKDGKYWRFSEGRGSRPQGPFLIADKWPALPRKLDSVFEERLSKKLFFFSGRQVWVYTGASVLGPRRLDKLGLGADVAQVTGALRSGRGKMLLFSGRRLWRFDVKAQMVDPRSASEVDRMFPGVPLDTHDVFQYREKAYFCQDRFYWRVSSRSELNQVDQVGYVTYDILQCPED

[2] = biological target: T1, Matrix metalloproteinase-9; test: Reduction of MMP9 activity in TNF-alpha/IL1-beta-stimulated human Caco-2 cells at 50 uM treated 1 hr before stimulation by zymography; type: cell-based

IC50 [1] [µM]	Activity [2]	Compound
19.4	Active	COc1cc(/C=C/c2cc(/C=C/c3ccc(O)c(OC)c3)[nH]n2)ccc1O [CURCUMIN PYRAZOLE]
8.5		COc1cc(/C=C/C(=O)CC(=O)/C=C/c2ccc(O)c(OC)c2)ccc1O [CURCUMIN]
17.6	Active	COc1cc(/C=C/c2cc(C)[nH]n2)ccc1O
8	Active	COc1cc(/C=C/c2n[nH]c(C)c2C)ccc1O
